According to patent US7452865B2, “Antagonistic analogs of GH RH (2003)” (The Administrare's of the Tulane Educational Fund, priority 2004, dated 2008):
Marks after values point to notes of the source that are not given here. Square brackets hold non-standard residues; d marks the D form. Peptide text beside a SMILES is read from it. * marks the point of attachment. Phe(4-amidino) = N=C(N)c1ccc(C[C@H](N)C(=O)O)cc1; Phe(4-Cl) = N[C@@H](Cc1ccc(Cl)cc1)C(=O)O; hArg = N=C(N)NCCCC[C@H](N)C(=O)O; Nle = CCCC[C@H](N)C(=O)O; Abu = CC[C@H](N)C(=O)O; PhAc = O=C(Cc1ccccc1)*

Experiments:
[1] = tested on: GH-RH receptor isoforms on membrane fractions of human PC-3 prostate tumors; assay type: binding; details: general statement
Method in brief: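 Competitive displacement of [^125I]JV-1-42 from crude membranes of human PC-3 prostate tumours grown as nude-mouse xenografts, with unlabelled peptides at 10^−12 to 10^−6 M. Bound radioactivity in the centrifuged pellet gamma-counted; Ki from Munson–Rodbard analysis. Relative affinity = Ki of reference peptide (JV-1-36 or JV-1-38) / Ki of test antagonist.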

[2] = tested on: PC-3 human prostate cancer xenografts; assay: PC-3 xenografts in nude mice, Experiment 1: tumor growth; assay type: in vivo
Method in brief: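 Male nude mice carried s.c. PC-3 hormone-independent prostate tumour fragments on both flanks. Once tumours reached about 50 mm^3, groups of 7–8 mice received vehicle or peptide at 10 μg/day s.c. once daily for 28 days. Tumour volume was measured twice weekly, with tumour weight and serum IGF-I (RIA) taken at day 29; data are means ±S.E., two-tailed t-test.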

IGF-I [3] = assay: PC-3 xenografts, Experiment 1: serum IGF-I (RIA); assay type: in vivo, nude mice; details: 10 μg/day s.c., 28 days
Method in brief: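 Male nude mice bearing s.c. PC-3 prostate tumors (~50 mm^3) given single daily s.c. injections, 10 μg/day, for 28 days, sacrificed day 29. IGFs acid-ethanol extracted from serum or tumor cytosol, then measured by RIA against IGF-I or recombinant human IGF-II standards.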

IGF-II = assay: PC-3 xenografts, Experiment 1: tumor IGF-II (RIA); assay type: in vivo, nude mice; details: 10 μg/day s.c., 28 days
Description: (§1) For the measurement of GH and IGF-I levels in the serum, as well as IGF-I and IGF-II concentrations in the cytosol fraction of tumors, blood samples and tumor samples were collected and processed as described (Braczkowski R, Schally A V, Plonowski A, Varga J L, Groot K, Krupa M, Armatis P, Cancer 95: 1735-1745, 2002), hereby incorporated by reference. Briefly, blood samples are centrifuged to separate the serum, tumors are homogenized and centrifuged to separate the cytosol fraction. Serum GH is then measured by the double-antibody RIA method. Before measurement by RIA, IGF-I and IGF-II are extracted from serum and cytosol fractions using an acid-ethanol cryoprecipitation method that eliminates most of the IGF binding proteins, which can interfere with the RIA. IGF-I concentration is measured by RIA using IGF-I as a standard and goat anti-IGF-I antibody (both from DSL Inc., Webster, Tex.). IGF-II concentration is measured by RIA using human recombinant IGF-II (Bachem) as a standard and anti-IGF-II monoclonal antibody (Amano International Enzyme, Troy, Va.).
Male nude mice were implanted s.c. with 3 mm^3 pieces of PC-3 human hormone-independent prostate cancer tissue on both flanks. When tumors reached a volume of approx. 50 mm^3, the mice were divided into 5 experimental groups with 7 to 8 animals in each group and received single daily injections for 28 days as follows: 1. Control (vehicle solution); 2. JV-1-38 (10 μg/day s.c.); 3 Peptide 31 (10 μg/day s.c.); 4. Peptide 67 (10 μg/day s.c.); 5. Peptide 62 (10 μg/day s.c.). Tumor volumes were measured twice a week. The experiment was ended on day 29 by sacrificing the mice under Isoflurane anesthesia. Resulting tumors were cleaned, weighed, and snap-frozen until further analyses. Trunk blood was collected from the abdominal aorta and serum was separated for RIA measurement of IGF-I. Statistical analyses of the measurement results were done by two-tailed t-test; data are presented as the means±S.E.

[4] = tested on: HT-29 human colon cancer xenografts; assay: HT-29 human colon cancer xenografts in nude mice: tumor growth; assay type: in vivo; details: 10 μg/day s.c., 62 days
Experimental: HT-29 human colon cancers were transplanted sc. into male nude mice. 19 days after transplantation, the mice were divided into two groups of 10 animals each. and the treatment was started. Mice in the treatment group received single daily injections of Peptide 67 sc. at a dose of 10 μg/day for 62 days, while the control group was injected with the vehicle solvent. Tumors were measured regularly, and tumor volume was calculated. The mice were sacrificed at the end of experiment and tumor weights were measured.

[5] = tested on: DMS-153 human SCLC xenografts; assay: DMS-153 human SCLC xenografts in nude mice: tumor growth; assay type: in vivo
Experimental: (§2) Male nude mice were implanted s.c. with 3 mm^3 pieces of DMS-153 human SCLC tissue. When tumors reached a volume of approx. 100 mm^3 the mice were divided into 3 experimental groups of 68 animals each and received the following treatment for 6 weeks group 1 (control), vehicle solution; group 2, Peptide 67 (10 μg/day s.c.); group 3, Peptide 31 (10 μg/day s.c.). Tumor volumes were recorded twice a week. At the end of treatment, mice were anesthetized with isoflurane, killed by decapitation, trunk blood was collected for measurement of serum IGF-I, and tumors were excised and weighed. Data are presented as means±S.E. Data were evaluated by one way ANOVA and the Student-Newman-Keuls test.

IGF-I [6] = assay: DMS-153 human SCLC xenografts: serum IGF-I; assay type: in vivo, nude mice; details: 10 μg/day s.c., 6 weeks
Description: as §1, §2

mRNA for IGF-II = assay: DMS-153 human SCLC xenografts: expression of mRNA for IGF-II; assay type: in vivo, nude mice; details: 10 μg/day s.c., 6 weeks, control group 100±1.5%
Experimental: as §2

[7] = tested on: H-69 human SCLC xenografts; assay: H-69 human SCLC xenografts in nude mice: tumor growth; assay type: in vivo; details: H-69
Experimental: Male nude mice were implanted s.c. with 3 mm^3 pieces of H-69 human SCLC tissue. When tumors reached a volume of approx. 80 mm^3 the mice were divided into 4 experimental groups of 7-8 animals each and received the following treatment for 4 weeks: group I (control), vehicle solution; group 2, Peptide 67 (10 μg/day s.c.); group 3, Peptide 31 (10 μg/day s.c.); group 4, Peptide 72 (10 μg/day s.c.). Tumor volumes were recorded twice a week. At the end of treatment, mice were anesthetized with isoflurane, killed by decapitation, and tumors were excised and weighed. Data are presented as means±S.E. Data were evaluated by one way ANOVA and the Student-Newman-Keuls test.

[8] = 10 μg/day s.c., 28 days, vs control
[9] = 10 μg/day s.c., 6 weeks, vs control

With CCCC[C@H](NC(=O)[C@@H](NC(=O)[C@H](CC(=O)O)NC(=O)[C@H](CCC(N)=O)NC(=O)[C@H](CC(C)C)NC(=O)[C@H](CC(C)C)NC(=O)[C@H](CCCCN)NC(=O)[C@H](CCCNC(=N)N)NC(=O)[C@H](C)NC(=O)[C@H](CO)NC(=O)[C@H](CC(C)C)NC(=O)[C@H](CCC(N)=O)NC(=O)[C@H](CC)NC(=O)[C@H](CC(C)C)NC(=O)[C@@H](NC(=O)[C@H](CCCCN)NC(=O)[C@H](CCCNC(=N)N)NC(=O)[C@H](Cc1ccc(OC)cc1)NC(=O)[C@H](Cc1ccc(C(=N)N)cc1)NC(=O)[C@H](CC(N)=O)NC(=O)[C@@H](NC(=O)[C@H](Cc1ccc(Cl)cc1)NC(=O)[C@@H](NC(=O)[C@H](C)NC(=O)[C@H](CC(=O)O)NC(=O)[C@@H](CCCNC(=N)N)NC(=O)[C@H](Cc1ccc(O)cc1)NC(=O)Cc1ccccc1)[C@@H](C)CC)[C@@H](C)O)C(C)C)[C@@H](C)CC)C(=O)N[C@H](CCCNC(=N)N)C(=O)N[C@@H](CCCCNC(=N)N)C(N)=O [Peptide 67, [PhAc-Tyr^1, D-Arg^2, Phe(pCl)^6, Amp^9, Tyr(Me)^10, Abu^15, Nle^27, D-Arg^28, Har^29]hGH-RH(1-29)NH2] (PhAc-Y[dR]DAI[Phe(4-Cl)]TN[Phe(4-amidino)]Y(Me)RKVL[Abu]QLSARKLLQDI[Nle][dR][hArg]-NH2) the “binding affinities to the tumoral receptors for GH-RH (in words)” value [1] was “extremely high binding affinities”, the “Tumor volume (mm^3) Final” value ([2]; 10 μg/day s.c., 28 days) was 200 ± 39.5* mm^3 and the “Tumor volume doubling time” value ([2]; 10 μg/day s.c., 28 days) was 17.0 ± 3.51 days. The “Tumor weight” value ([2]; 10 μg/day s.c., 28 days) was 150 ± 22.1 mg, the “Tumor volume Final (% inhibition)” value [2, 8] was “(60%)” and the “Tumor weight (% inhibition)” value [2, 8] was “(60%)”. The “inhibitory effect on the growth of PC-3 tumors (in words)” value ([2]; 10 μg/day s.c., compared with JV-1-38) was “stronger inhibitory effect on the growth of PC-3 tumors than the reference peptide JV-1-38”, the “Tumor volume (mm^3) Initial” value ([2]; at start of treatment) was 46.8 ± 8.11 mm^3 and the “Serum IGF-I” value (IGF-I [3]) was 128 ± 10.6 ng/mL. The “Serum IGF-I (% inhibition)” value (IGF-I [3]; vs control) was “(14%)”, the “Tumor IGF-II (pg/mg protein)” value (IGF-II) was 139 ± 69.2 pg/mg protein and the “Tumor IGF-II (% inhibition)” value (IGF-II; vs control) was “(37%)”. For the same molecule, the “Final tumor volume (mm^3)” value [4] was 1218 ± 320* mm^3, the “Tumor weight” value [4] was 1434 ± 405 mg and the “inhibition in the volumes of HT-29 tumors” value ([4]; vs control group) was 56.3%. The “inhibition in the weights of HT-29 tumors” value ([4]; vs control group) was 53.9%, the “Tumor volume (mm^3) Final” value ([5]; 10 μg/day s.c., 6 weeks) was 2650 ± 30* mm^3 and the “Tumor weight” value ([5]; 10 μg/day s.c., 6 weeks) was 1.60 ± 0.19 g. The “Tumor volume Final (% inhibition)” value [5, 9] was “(28%)”, the “Tumor weight (% inhibition)” value [5, 9] was “(31%)” and the “Tumor volume (mm^3) Initial” value ([5]; at start of treatment) was 132 ± 24 mm^3. For the same molecule, the “Serum IGF-I” value (IGF-I [6]) was 117.9 ± 17.2 ng/mL, the “Serum IGF-I (% inhibition)” value (IGF-I [6]; vs control) was “(30%)” and the “level of expression of mRNA for IGF-II” value (mRNA for IGF-II) was 78.0±44.3%. For the same molecule, the “Tumor volume (mm^3) Final” value ([7]; 10 μg/day s.c., 4 weeks) was 501 ± 35* mm^3, the “Tumor volume Final (% inhibition)” value ([7]; 10 μg/day s.c., 4 weeks, vs control) was “(76%)” and the “Tumor volume (mm^3) Initial” value ([7]; at start of treatment) was 82 ± 10 mm^3.
